Experimental findings from PubChem BioAssay (NCI) are described below.

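Assay format: 96-well plates, 48-hour exposure. At the GI50, growth is halved. At the TGI there is no net growth.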 A value given as a limit tells only on which side of the number the result lay.

Test systems include SK-MEL-28 melanoma; MCF7 breast; PC-3 prostate; SN12C renal; SNB-75 CNS; SR leukemia; M14 melanoma; TK-10 renal; SK-MEL-2 melanoma; 786-0 renal.
Test in all cases: NCI anticancer screen, dose series, 48 h

On to `Cc1cc(NC(=O)NCCCOc2ccc(N3C(N)=NC(N)=NC3(C)C)cc2Cl)ccc1S(=O)(=O)F`, for which the GI50 is 1.93 µM in the assay on SK-MEL-28 melanoma; 0.614 µM in the assay with MCF7 breast; 0.376 µM with PC-3 prostate; 0.558 µM in the assay on SN12C renal; 1.2 µM with SNB-75 CNS; 0.369 µM in the assay on SR leukemia. Moreover, the GI50 was 2.42 µM in the assay on M14 melanoma, 3.11 µM in the assay on TK-10 renal, 2.43 µM with SK-MEL-2 melanoma and 2.46 µM with 786-0 renal. The TGI is 28.5 µM in the assay with SK-MEL-28 melanoma; 22.5 µM in the assay with MCF7 breast; 44 µM in the assay with PC-3 prostate; greater than 100 µM in the assay with SN12C renal; 24.4 µM with SNB-75 CNS; greater than 46.2 µM with SR leukemia. Besides, the TGI is greater than 100 µM in the assay with M14 melanoma, greater than 100 µM in the assay with TK-10 renal, 65.9 µM in the assay on SK-MEL-2 melanoma and greater than 100 µM with 786-0 renal.
Take `Clc1ccc2c(NCCCCNc3nc(N4CCOCC4)nc4ccccc34)ccnc2c1`: the GI50 was 2.03 µM in the assay on SK-MEL-28 melanoma; 3.81 µM with MCF7 breast; 6.37 µM with PC-3 prostate; 2.03 µM with SN12C renal; 1.33 µM in the assay with SNB-75 CNS; 0.295 µM with SR leukemia. The GI50 is 2 µM in the assay with M14 melanoma, 1.92 µM in the assay on TK-10 renal, 2.23 µM in the assay with SK-MEL-2 melanoma and 2.28 µM with 786-0 renal. Besides, the TGI is 4.03 µM in the assay with SK-MEL-28 melanoma; 17.7 µM with MCF7 breast; 19.5 µM in the assay on PC-3 prostate; 4.31 µM with SN12C renal; 3.03 µM in the assay with SNB-75 CNS; 0.853 µM in the assay on SR leukemia. The TGI in the assay with M14 melanoma stood at 3.91 µM; in the assay on TK-10 renal it was 3.61 µM; in the assay on SK-MEL-2 melanoma, 5.02 µM; with 786-0 renal, 5.94 µM.
Take `CCn1c(-c2nonc2N)nc2cnc(Oc3cccc(NC(=O)c4ccc(OCCN5CCOCC5)cc4)c3)cc21`: the GI50 with SK-MEL-28 melanoma is greater than 20.1 µM; in the assay on MCF7 breast, 3.87 µM; with PC-3 prostate, 2.88 µM; with SN12C renal it was 6.26 µM; with SNB-75 CNS, 0.0594 µM; with SR leukemia, 0.886 µM. Also, the GI50 was 12.7 µM with M14 melanoma, 0.564 µM with TK-10 renal, 7.54 µM with SK-MEL-2 melanoma and 3.49 µM in the assay with 786-0 renal. Further, the TGI with SK-MEL-28 melanoma was greater than 25 µM; in the assay on MCF7 breast it was greater than 25 µM; in the assay on PC-3 prostate it was greater than 25 µM; in the assay on SN12C renal it was greater than 25 µM; with SNB-75 CNS, 7.65 µM; in the assay on SR leukemia it was greater than 25 µM. For the same molecule, the TGI in the assay on M14 melanoma was greater than 25 µM; in the assay on TK-10 renal, 13.7 µM; in the assay on SK-MEL-2 melanoma, greater than 25 µM; with 786-0 renal, greater than 25 µM.
In the case of `COc1ccc2c(c1)c(-c1ccc(-c3cn(C)c4ccc(OC)cc34)s1)cn2C`, the GI50 in the assay with SK-MEL-28 melanoma is greater than 100 µM; in the assay on MCF7 breast, greater than 100 µM; with PC-3 prostate, greater than 100 µM; in the assay on SN12C renal it was greater than 100 µM; in the assay on SNB-75 CNS, 49.4 µM; in the assay on SR leukemia it was greater than 100 µM. In addition, the GI50 in the assay on M14 melanoma, in the assay on TK-10 renal, in the assay with SK-MEL-2 melanoma and in the assay with 786-0 renal was greater than 100 µM in each case. Besides, the TGI in the assay with SK-MEL-28 melanoma, in the assay with MCF7 breast, with PC-3 prostate, in the assay on SN12C renal, with SNB-75 CNS and in the assay on SR leukemia was greater than 100 µM throughout. Moreover, the TGI with M14 melanoma, in the assay with TK-10 renal, with SK-MEL-2 melanoma and in the assay on 786-0 renal was greater than 100 µM throughout.
On to `COc1ccc(CC(C)NCC(O)c2ccc(O)c(NC=O)c2)cc1` (stereo not given), for which the TGI in the assay on SK-MEL-28 melanoma, with MCF7 breast, in the assay on PC-3 prostate, in the assay on SN12C renal, in the assay on SNB-75 CNS and in the assay with SR leukemia was greater than 100 µM throughout. Also, the TGI in the assay with M14 melanoma, with TK-10 renal, with SK-MEL-2 melanoma and in the assay on 786-0 renal was greater than 100 µM in each case.
Turning to `COc1cccc(C2CC(C)(O)Oc3cc4c(cc32)OCO4)c1` (stereo not given), the TGI with SK-MEL-28 melanoma is greater than 100 µM; with MCF7 breast, greater than 100 µM; with PC-3 prostate, greater than 100 µM; with SN12C renal it was greater than 100 µM; with SNB-75 CNS it was 61.7 µM; in the assay with SR leukemia it was 23.8 µM. For the same molecule, the TGI with M14 melanoma is greater than 100 µM; in the assay on TK-10 renal, 80.2 µM; with SK-MEL-2 melanoma it was 43.6 µM; with 786-0 renal it was greater than 100 µM.
On to `CC(NC(=O)c1ccc(Cl)c(Cl)c1)c1ccc(-c2ccccc2)cc1` (stereo not given), for which the TGI in the assay on SK-MEL-28 melanoma was greater than 100 µM; with MCF7 breast, greater than 100 µM; with PC-3 prostate, greater than 100 µM; in the assay on SN12C renal, greater than 100 µM; with SNB-75 CNS, 39.3 µM; in the assay with SR leukemia it was 40.3 µM. The TGI in the assay with M14 melanoma was greater than 100 µM; in the assay with TK-10 renal, 68.7 µM; in the assay with SK-MEL-2 melanoma it was greater than 100 µM; in the assay on 786-0 renal, 47.5 µM.
Regarding `C=C(C)[C@@H]1CC[C@]2(C(=O)OC)CC[C@]3(C)[C@H](CC[C@@H]4[C@@](C)(CCc5nn[nH]n5)[C@H](C(=C)C)CC[C@]43C)[C@@H]12`, the GI50 with SK-MEL-28 melanoma is 12.9 µM; with MCF7 breast, 17 µM; in the assay on PC-3 prostate it was 3.46 µM; in the assay on SN12C renal, 14.7 µM; with SNB-75 CNS it was 15.9 µM; in the assay with SR leukemia it was 11.4 µM. For the same molecule, the GI50 is 27.5 µM with M14 melanoma, 30.9 µM in the assay with TK-10 renal, 16.7 µM in the assay with SK-MEL-2 melanoma and 53.4 µM in the assay with 786-0 renal. Also, the TGI with SK-MEL-28 melanoma came to 27.8 µM; in the assay with MCF7 breast, 70.5 µM; in the assay with PC-3 prostate, 17.2 µM; with SN12C renal, 32.8 µM; with SNB-75 CNS it was 34.1 µM; in the assay on SR leukemia, 49.4 µM. Further, the TGI in the assay with M14 melanoma is greater than 100 µM; with TK-10 renal, greater than 100 µM; in the assay on SK-MEL-2 melanoma, 39.5 µM; in the assay on 786-0 renal it was greater than 100 µM.
In the case of `CCOC(=O)c1sc2nc(=S)[nH]c(NC(N)=S)c2c1C`, the GI50 in the assay with SK-MEL-28 melanoma was 19 µM; with MCF7 breast it was 16.5 µM; in the assay with PC-3 prostate, 22.7 µM; in the assay on SN12C renal it was 13.1 µM; with SNB-75 CNS, 21.4 µM; in the assay on SR leukemia, 20.9 µM. Also, the GI50 with M14 melanoma was 26.5 µM; with TK-10 renal, 95.5 µM; in the assay on SK-MEL-2 melanoma it was 46.7 µM; in the assay on 786-0 renal, 21.5 µM. In addition, the TGI with SK-MEL-28 melanoma was found to be 41.6 µM; in the assay on MCF7 breast, 37.2 µM; in the assay with PC-3 prostate it was 94.6 µM; in the assay with SN12C renal, 26.9 µM; in the assay on SNB-75 CNS, 66.6 µM; in the assay with SR leukemia, 64.7 µM. For the same molecule, the TGI was 64.6 µM with M14 melanoma, greater than 100 µM in the assay on TK-10 renal, greater than 100 µM in the assay with SK-MEL-2 melanoma and 45.5 µM in the assay with 786-0 renal.
